Assays:
[1] = system: Mycobacterium tuberculosis Erdman (autoluminescent); test: Einf, fitted maximum growth inhibition of three-drug combination (fraction); higher = stronger maximal inhibition
Protocol: (§1)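 DiaMOND equipotent three-drug combination dose responses (10 doses, 1.5- or 2-fold spacing, centred on IC90) against autoluminescent M. tuberculosis Erdman in 8 in vitro models. Read-out is OD600, or luminescence for the intracellular and dormancy models, normalised to untreated wells. Hill-fit Einf, AUC25 and GRinf are potency metrics; FIC50 and FIC90 are total Loewe fractional inhibitory concentrations as log2 (negative = synergy).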

[2] = system: Mycobacterium tuberculosis Erdman (autoluminescent); test: total FIC90 (Loewe) at 90% inhibition, three-drug combination (log2); higher = more antagonistic
Protocol: as §1

[3] = system: Mycobacterium tuberculosis Erdman (autoluminescent); test: GRinf, maximum normalised growth rate inhibition (three-drug combination) (unitless (-1 to 1)); higher = less effect (negative = killing)
Protocol: as §1

[4] = system: Mycobacterium tuberculosis Erdman (autoluminescent); test: total FIC50 (Loewe) at 50% inhibition, three-drug combination (log2); higher = more antagonistic
Protocol: as §1

[5] = system: Mycobacterium tuberculosis Erdman (autoluminescent); test: AUC25, normalised area under dose response up to IC25 (three-drug combination) (fraction (0-1)); higher = more potent at low dose
Protocol: as §1

CC(C)/N=c1\cc2n(-c3ccc(Cl)cc3)c3ccccc3nc-2cc1Nc1ccc(Cl)cc1 [clofazimine] + CO[C@H]1/C=C/O[C@@]2(C)Oc3c(C)c(O)c4c(O)c(c(/C=N/N5CCN(C6CCCC6)CC5)c(O)c4c3C2=O)NC(=O)/C(C)=C\C=C\[C@H](C)[C@H](O)[C@@H](C)[C@@H](O)[C@@H](C)[C@H](OC(C)=O)[C@@H]1C [rifapentine] + CO[C@H]1/C=C/O[C@@]2(C)Oc3c(C)c(O)c4c(O)c(c(/C=N/N5CCN(C)CC5)c(O)c4c3C2=O)NC(=O)/C(C)=C\C=C\[C@H](C)[C@H](O)[C@@H](C)[C@@H](O)[C@@H](C)[C@H](OC(C)=O)[C@@H]1C [rifampicin]
Conditions	AUC25, [5]	Einf, [1]	GRinf, [3]	total FIC50, [4]	total FIC90, [2]
in vitro model: acidic pH 5.7, time point: constant (~7 days, model-specific)	0.0846	0.855	-0.0603	0.102	–
in vitro model: acidic pH 5.7, time point: terminal (~4-5 doublings, model-specific)	0.076	0.975	-0.1	0.133	-0.159
in vitro model: intracellular J774, time point: constant = terminal	–	0.956	-0.293	–	0.0463

Conditions	AUC25, [5]	Einf, [1]	GRinf, [3]	total FIC50, [4]	total FIC90, [2]
in vitro model: butyrate, time point: constant (~7 days, model-specific)	0.115	0.935	-0.0887	0.282	0.128
in vitro model: butyrate, time point: terminal (~4-5 doublings, model-specific)	0.0924	0.967	-0.0699	0.19	0.285
in vitro model: cholesterol 0.05 mM, time point: constant (~7 days, model-specific)	0.13	0.619	-0.094	0.554	–
in vitro model: cholesterol 0.05 mM, time point: terminal (~4-5 doublings, model-specific)	0.098	0.865	0.0942	1.05	0.206
in vitro model: cholesterol-high 0.2 mM, time point: constant (~7 days, model-specific)	0.105	0.887	-0.333	0.692	–
in vitro model: cholesterol-high 0.2 mM, time point: terminal (~4-5 doublings, model-specific)	0.0914	0.999	-0.983	0.952	0.73
in vitro model: dormancy (butyrate + nitrate, low O2), time point: constant (~7 days, model-specific)	0.0771	0.965	0.0628	0.158	-0.937
in vitro model: dormancy (butyrate + nitrate, low O2), time point: terminal (~4-5 doublings, model-specific)	0.067	0.994	-0.464	-0.183	0.154
in vitro model: standard 7H9 glycerol, time point: constant = terminal	0.0923	0.907	0.0923	0.00896	1.54
in vitro model: valerate, time point: constant (~7 days, model-specific)	0.0792	0.861	0.00522	0.944	–
in vitro model: valerate, time point: terminal (~4-5 doublings, model-specific)	0.0548	0.925	0.043	0.559	0.577

CC(C)/N=c1\cc2n(-c3ccc(Cl)cc3)c3ccccc3nc-2cc1Nc1ccc(Cl)cc1 [clofazimine] + COc1c(N2C[C@@H]3CCCN[C@@H]3C2)c(F)cc2c(=O)c(C(=O)O)cn(C3CC3)c12 [moxifloxacin] + CO[C@H]1/C=C/O[C@@]2(C)Oc3c(C)c(O)c4c(O)c(c(/C=N/N5CCN(C6CCCC6)CC5)c(O)c4c3C2=O)NC(=O)/C(C)=C\C=C\[C@H](C)[C@H](O)[C@@H](C)[C@@H](O)[C@@H](C)[C@H](OC(C)=O)[C@@H]1C [rifapentine]
Conditions	AUC25, [5]	Einf, [1]	GRinf, [3]	total FIC50, [4]	total FIC90, [2]
in vitro model: acidic pH 5.7, time point: constant (~7 days, model-specific)	0.0597	0.791	0.0664	0.757	–
in vitro model: acidic pH 5.7, time point: terminal (~4-5 doublings, model-specific)	0.0785	0.994	-0.157	0.662	0.776
in vitro model: intracellular J774, time point: constant = terminal	–	0.896	-0.177	–	0.705

Conditions	AUC25, [5]	Einf, [1]	GRinf, [3]	total FIC50, [4]	total FIC90, [2]
in vitro model: butyrate, time point: constant (~7 days, model-specific)	0.109	0.951	-0.179	0.683	0.815
in vitro model: butyrate, time point: terminal (~4-5 doublings, model-specific)	0.0865	0.976	-0.126	0.677	0.878
in vitro model: cholesterol 0.05 mM, time point: constant (~7 days, model-specific)	0.117	0.651	-0.0835	0.506	–
in vitro model: cholesterol 0.05 mM, time point: terminal (~4-5 doublings, model-specific)	0.106	0.826	0.0322	1.24	0.476
in vitro model: cholesterol-high 0.2 mM, time point: constant (~7 days, model-specific)	0.122	0.933	-0.651	0.36	0.939
in vitro model: cholesterol-high 0.2 mM, time point: terminal (~4-5 doublings, model-specific)	0.0999	1	-0.936	0.593	0.687
in vitro model: dormancy (butyrate + nitrate, low O2), time point: constant (~7 days, model-specific)	0.0884	0.916	0.189	0.695	0.16
in vitro model: dormancy (butyrate + nitrate, low O2), time point: terminal (~4-5 doublings, model-specific)	0.0815	0.985	-0.35	0.807	1.55
in vitro model: standard 7H9 glycerol, time point: constant = terminal	0.11	0.961	-0.153	0.103	0.69
in vitro model: valerate, time point: constant (~7 days, model-specific)	0.121	0.922	-0.0961	0.866	–
in vitro model: valerate, time point: terminal (~4-5 doublings, model-specific)	0.0636	0.937	0.0037	0.401	0.131

CC(C)/N=c1\cc2n(-c3ccc(Cl)cc3)c3ccccc3nc-2cc1Nc1ccc(Cl)cc1 [clofazimine] + COc1c(N2C[C@@H]3CCCN[C@@H]3C2)c(F)cc2c(=O)c(C(=O)O)cn(C3CC3)c12 [moxifloxacin] + CO[C@H]1/C=C/O[C@@]2(C)Oc3c(C)c(O)c4c(O)c(c(/C=N/N5CCN(C)CC5)c(O)c4c3C2=O)NC(=O)/C(C)=C\C=C\[C@H](C)[C@H](O)[C@@H](C)[C@@H](O)[C@@H](C)[C@H](OC(C)=O)[C@@H]1C [rifampicin]
Conditions	AUC25, [5]	Einf, [1]	GRinf, [3]	total FIC50, [4]	total FIC90, [2]
in vitro model: acidic pH 5.7, time point: constant (~7 days, model-specific)	0.0543	0.794	0.0586	0.584	–
in vitro model: acidic pH 5.7, time point: terminal (~4-5 doublings, model-specific)	0.0718	0.984	-0.141	0.552	0.413
in vitro model: intracellular J774, time point: constant = terminal	–	0.971	-0.31	–	0.881

Conditions	AUC25, [5]	Einf, [1]	GRinf, [3]	total FIC50, [4]	total FIC90, [2]
in vitro model: butyrate, time point: constant (~7 days, model-specific)	0.118	0.961	-0.195	0.632	0.476
in vitro model: butyrate, time point: terminal (~4-5 doublings, model-specific)	0.0964	0.979	-0.129	0.441	0.673
in vitro model: cholesterol 0.05 mM, time point: constant (~7 days, model-specific)	0.111	0.622	0.0422	1.52	–
in vitro model: cholesterol 0.05 mM, time point: terminal (~4-5 doublings, model-specific)	0.0951	0.89	-0.0588	1.22	-0.407
in vitro model: cholesterol-high 0.2 mM, time point: constant (~7 days, model-specific)	0.119	0.887	-0.695	1.08	1.19
in vitro model: cholesterol-high 0.2 mM, time point: terminal (~4-5 doublings, model-specific)	0.0965	1	-1	1.33	1.21
in vitro model: dormancy (butyrate + nitrate, low O2), time point: constant (~7 days, model-specific)	0.0851	0.924	0.135	0.282	-0.619
in vitro model: dormancy (butyrate + nitrate, low O2), time point: terminal (~4-5 doublings, model-specific)	0.108	0.991	-0.361	-0.142	1.27
in vitro model: standard 7H9 glycerol, time point: constant = terminal	0.128	0.975	-0.0863	-0.17	–
in vitro model: valerate, time point: constant (~7 days, model-specific)	0.104	0.907	-0.0605	1.12	–
in vitro model: valerate, time point: terminal (~4-5 doublings, model-specific)	0.075	0.948	0.0195	0.91	1.97

CC(C)/N=c1\cc2n(-c3ccc(Cl)cc3)c3ccccc3nc-2cc1Nc1ccc(Cl)cc1 [clofazimine] + COc1c(N2C[C@@H]3CCCN[C@@H]3C2)c(F)cc2c(=O)c(C(=O)O)cn(C3CC3)c12 [moxifloxacin] + NC(=O)c1cnccn1 [pyrazinamide]
Conditions	AUC25, [5]	Einf, [1]	GRinf, [3]	total FIC50, [4]	total FIC90, [2]
in vitro model: acidic pH 5.7, time point: constant (~7 days, model-specific)	0.0994	0.605	-0.618	0.273	–
in vitro model: acidic pH 5.7, time point: terminal (~4-5 doublings, model-specific)	0.0958	0.951	-0.261	-0.216	-0.195
in vitro model: intracellular J774, time point: constant = terminal	–	0.975	-0.333	–	0.42

Conditions	AUC25, [5]	Einf, [1]	GRinf, [3]	total FIC50, [4]	total FIC90, [2]
in vitro model: butyrate, time point: constant (~7 days, model-specific)	0.127	0.968	-0.193	-0.173	0.847
in vitro model: butyrate, time point: terminal (~4-5 doublings, model-specific)	0.0926	0.973	-0.0738	-0.0902	0.342
in vitro model: cholesterol 0.05 mM, time point: constant (~7 days, model-specific)	0.129	0.646	-0.114	–	–
in vitro model: cholesterol 0.05 mM, time point: terminal (~4-5 doublings, model-specific)	0.112	0.927	-0.137	0.91	–
in vitro model: cholesterol-high 0.2 mM, time point: constant (~7 days, model-specific)	0.108	0.882	-0.3	0.275	–
in vitro model: cholesterol-high 0.2 mM, time point: terminal (~4-5 doublings, model-specific)	0.0989	0.998	-0.761	0.347	0.272
in vitro model: dormancy (butyrate + nitrate, low O2), time point: constant (~7 days, model-specific)	0.113	0.919	0.162	-0.332	-0.522
in vitro model: dormancy (butyrate + nitrate, low O2), time point: terminal (~4-5 doublings, model-specific)	0.0767	0.992	-0.202	0.182	0.297
in vitro model: standard 7H9 glycerol, time point: constant = terminal	0.111	0.974	-0.232	–	–
in vitro model: valerate, time point: constant (~7 days, model-specific)	0.122	0.852	-0.0384	0.546	–
in vitro model: valerate, time point: terminal (~4-5 doublings, model-specific)	0.067	0.914	0.0776	0.292	0.85
